Results reported in ChEMBL document CHEMBL1681705, “Optimisation of ITK inhibitors through successive iterative design cycles” (Bioorg Med Chem Lett, 2011).

Columns and labels:
[1] = biological target: Insulin-like growth factor 1 receptor (Homo sapiens) (UniProt P08069); test: Inhibition of IGF1R at 1 uM; values are per cent of control
[2] = biological target: T1, Tyrosine-protein kinase JAK3 (Homo sapiens) (UniProt P52333); test: Inhibition of JAK3 at 0.1 uM; values are per cent of control
T1 sequence (whole entry): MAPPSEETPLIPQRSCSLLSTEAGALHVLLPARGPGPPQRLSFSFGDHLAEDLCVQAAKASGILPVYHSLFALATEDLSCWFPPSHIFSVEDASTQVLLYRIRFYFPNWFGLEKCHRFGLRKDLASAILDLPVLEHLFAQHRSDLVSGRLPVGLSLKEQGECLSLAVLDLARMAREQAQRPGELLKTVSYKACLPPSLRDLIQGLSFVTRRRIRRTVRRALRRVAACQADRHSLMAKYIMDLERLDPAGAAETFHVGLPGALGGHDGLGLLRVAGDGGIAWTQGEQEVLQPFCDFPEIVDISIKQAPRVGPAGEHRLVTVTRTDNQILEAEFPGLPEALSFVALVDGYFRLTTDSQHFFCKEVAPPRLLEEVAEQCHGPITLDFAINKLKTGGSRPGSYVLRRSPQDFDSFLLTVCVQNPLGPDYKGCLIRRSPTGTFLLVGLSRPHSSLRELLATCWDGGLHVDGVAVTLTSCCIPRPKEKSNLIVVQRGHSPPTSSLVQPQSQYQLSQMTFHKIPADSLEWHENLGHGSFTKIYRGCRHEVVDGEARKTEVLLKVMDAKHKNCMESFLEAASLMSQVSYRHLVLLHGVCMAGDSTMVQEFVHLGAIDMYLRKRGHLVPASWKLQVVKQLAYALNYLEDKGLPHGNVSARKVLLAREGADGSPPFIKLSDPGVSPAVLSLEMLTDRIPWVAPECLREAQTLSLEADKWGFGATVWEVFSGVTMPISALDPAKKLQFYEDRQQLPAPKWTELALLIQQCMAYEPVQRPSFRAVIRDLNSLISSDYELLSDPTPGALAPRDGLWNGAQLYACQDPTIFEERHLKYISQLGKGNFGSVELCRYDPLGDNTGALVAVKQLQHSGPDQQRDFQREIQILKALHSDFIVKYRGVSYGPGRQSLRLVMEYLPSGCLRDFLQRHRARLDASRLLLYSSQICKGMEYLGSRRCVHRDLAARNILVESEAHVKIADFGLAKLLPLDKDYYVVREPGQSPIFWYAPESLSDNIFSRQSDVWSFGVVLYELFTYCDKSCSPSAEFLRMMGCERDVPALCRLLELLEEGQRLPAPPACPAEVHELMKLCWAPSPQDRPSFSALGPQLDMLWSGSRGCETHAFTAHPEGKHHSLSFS

[3] = Inhibition of ROCK1 at 0.1 uM; values are per cent of control
[4] = biological target: Interleukin-1 receptor-associated kinase 1 (Homo sapiens) (UniProt P51617); test: Inhibition of IRAK1 at 0.1 uM; values are per cent of control
Chain of Interleukin-1 receptor-associated kinase 1 (Homo sapiens) (P51617 whole entry, looked up): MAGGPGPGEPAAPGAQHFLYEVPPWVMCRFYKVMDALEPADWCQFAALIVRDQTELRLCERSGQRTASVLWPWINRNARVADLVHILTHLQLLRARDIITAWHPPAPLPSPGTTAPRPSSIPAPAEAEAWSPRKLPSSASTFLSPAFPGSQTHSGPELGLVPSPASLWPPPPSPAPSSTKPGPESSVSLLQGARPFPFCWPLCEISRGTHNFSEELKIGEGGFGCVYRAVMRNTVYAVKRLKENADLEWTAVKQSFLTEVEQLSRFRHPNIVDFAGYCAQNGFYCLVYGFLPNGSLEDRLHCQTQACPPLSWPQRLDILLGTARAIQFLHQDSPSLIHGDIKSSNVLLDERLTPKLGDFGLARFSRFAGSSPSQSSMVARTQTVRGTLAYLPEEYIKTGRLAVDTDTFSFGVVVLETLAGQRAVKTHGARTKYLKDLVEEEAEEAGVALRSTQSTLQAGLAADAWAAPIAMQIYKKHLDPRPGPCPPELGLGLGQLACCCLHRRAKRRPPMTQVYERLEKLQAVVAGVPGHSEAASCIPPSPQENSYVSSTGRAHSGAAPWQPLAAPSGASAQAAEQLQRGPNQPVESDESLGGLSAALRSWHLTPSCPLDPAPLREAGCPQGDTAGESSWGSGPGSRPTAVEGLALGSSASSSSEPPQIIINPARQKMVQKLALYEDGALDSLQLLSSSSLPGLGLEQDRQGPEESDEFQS

[5] = biological target: T2, Ephrin type-B receptor 4 (Homo sapiens) (UniProt P54760); test: Inhibition of EphB4 at 1 uM; values are per cent of control
T2 sequence (whole entry): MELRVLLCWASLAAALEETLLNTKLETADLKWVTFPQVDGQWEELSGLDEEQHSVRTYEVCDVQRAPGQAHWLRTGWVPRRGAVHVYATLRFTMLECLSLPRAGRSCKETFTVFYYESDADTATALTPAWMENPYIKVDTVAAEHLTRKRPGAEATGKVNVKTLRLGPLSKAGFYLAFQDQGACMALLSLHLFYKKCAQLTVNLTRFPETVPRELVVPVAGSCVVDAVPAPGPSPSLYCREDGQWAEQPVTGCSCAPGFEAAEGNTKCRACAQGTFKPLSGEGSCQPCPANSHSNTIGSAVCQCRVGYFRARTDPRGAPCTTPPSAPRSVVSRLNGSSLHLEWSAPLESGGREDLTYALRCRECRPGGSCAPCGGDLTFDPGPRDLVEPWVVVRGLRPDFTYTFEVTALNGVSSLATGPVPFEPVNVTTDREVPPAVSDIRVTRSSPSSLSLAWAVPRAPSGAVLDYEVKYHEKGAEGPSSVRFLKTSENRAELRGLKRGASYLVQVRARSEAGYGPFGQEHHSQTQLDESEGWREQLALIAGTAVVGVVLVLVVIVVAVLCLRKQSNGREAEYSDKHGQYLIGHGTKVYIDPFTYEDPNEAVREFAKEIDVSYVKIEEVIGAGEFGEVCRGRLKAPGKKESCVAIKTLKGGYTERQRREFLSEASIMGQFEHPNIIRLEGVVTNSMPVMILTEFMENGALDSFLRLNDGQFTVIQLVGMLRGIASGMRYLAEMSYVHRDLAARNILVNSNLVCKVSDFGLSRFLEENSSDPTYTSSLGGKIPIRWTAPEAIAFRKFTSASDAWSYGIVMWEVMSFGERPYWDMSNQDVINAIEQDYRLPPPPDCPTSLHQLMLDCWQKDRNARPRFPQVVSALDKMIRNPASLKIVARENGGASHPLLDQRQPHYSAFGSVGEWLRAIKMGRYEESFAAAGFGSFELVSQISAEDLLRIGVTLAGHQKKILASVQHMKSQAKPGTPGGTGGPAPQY

[6] = biological target: Fibroblast growth factor receptor 1 (Homo sapiens) (UniProt P11362); test: Inhibition of FGFR1 at 0.1 uM; values are per cent of control
Chain of Fibroblast growth factor receptor 1 (Homo sapiens) (P11362 22-822 limits assumed): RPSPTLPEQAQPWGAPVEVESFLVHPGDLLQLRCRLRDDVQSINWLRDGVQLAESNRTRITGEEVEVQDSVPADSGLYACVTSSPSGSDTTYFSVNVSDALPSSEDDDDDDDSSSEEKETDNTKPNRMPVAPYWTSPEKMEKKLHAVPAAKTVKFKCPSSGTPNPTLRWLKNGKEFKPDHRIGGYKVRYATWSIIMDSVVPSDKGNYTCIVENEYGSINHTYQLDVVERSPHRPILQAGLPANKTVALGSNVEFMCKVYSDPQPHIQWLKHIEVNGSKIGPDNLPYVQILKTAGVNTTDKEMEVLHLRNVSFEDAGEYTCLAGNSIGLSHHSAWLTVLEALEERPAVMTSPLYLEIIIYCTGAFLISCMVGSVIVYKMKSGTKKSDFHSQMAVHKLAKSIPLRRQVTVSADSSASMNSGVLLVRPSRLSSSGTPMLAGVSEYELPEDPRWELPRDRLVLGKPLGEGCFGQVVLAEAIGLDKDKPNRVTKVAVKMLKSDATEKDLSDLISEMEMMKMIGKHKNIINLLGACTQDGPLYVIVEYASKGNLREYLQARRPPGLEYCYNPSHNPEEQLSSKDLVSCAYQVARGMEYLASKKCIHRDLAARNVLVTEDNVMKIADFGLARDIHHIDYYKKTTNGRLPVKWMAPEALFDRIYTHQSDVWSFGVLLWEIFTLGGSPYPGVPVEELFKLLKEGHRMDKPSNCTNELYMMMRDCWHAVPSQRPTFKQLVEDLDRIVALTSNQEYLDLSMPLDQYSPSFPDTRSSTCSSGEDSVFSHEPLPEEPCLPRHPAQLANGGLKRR

[7] = biological target: Tyrosine-protein kinase Fgr (Homo sapiens) (UniProt P09769); test: Inhibition of Fgr at 1 uM; values are per cent of control
Chain of Tyrosine-protein kinase Fgr (Homo sapiens) (P09769 2-529 limits assumed): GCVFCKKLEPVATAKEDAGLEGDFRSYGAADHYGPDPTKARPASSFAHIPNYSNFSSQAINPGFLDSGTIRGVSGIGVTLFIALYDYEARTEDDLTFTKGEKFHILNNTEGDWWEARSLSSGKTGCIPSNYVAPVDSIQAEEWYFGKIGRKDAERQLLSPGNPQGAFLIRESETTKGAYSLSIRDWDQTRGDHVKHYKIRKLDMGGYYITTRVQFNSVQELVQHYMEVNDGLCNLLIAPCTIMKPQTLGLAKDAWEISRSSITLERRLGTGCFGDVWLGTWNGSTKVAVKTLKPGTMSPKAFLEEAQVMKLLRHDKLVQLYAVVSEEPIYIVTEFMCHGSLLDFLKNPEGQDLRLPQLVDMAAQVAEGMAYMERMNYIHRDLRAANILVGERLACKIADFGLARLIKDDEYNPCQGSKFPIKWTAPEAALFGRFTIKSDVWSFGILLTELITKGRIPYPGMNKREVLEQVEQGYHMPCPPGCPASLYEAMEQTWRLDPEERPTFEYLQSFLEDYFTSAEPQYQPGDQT

[8] = biological target: Ephrin type-A receptor 2 (Homo sapiens) (UniProt P29317); test: Inhibition of EphA2 at 0.1 uM; values are per cent of control
Chain of Ephrin type-A receptor 2 (Homo sapiens) (P29317 whole entry): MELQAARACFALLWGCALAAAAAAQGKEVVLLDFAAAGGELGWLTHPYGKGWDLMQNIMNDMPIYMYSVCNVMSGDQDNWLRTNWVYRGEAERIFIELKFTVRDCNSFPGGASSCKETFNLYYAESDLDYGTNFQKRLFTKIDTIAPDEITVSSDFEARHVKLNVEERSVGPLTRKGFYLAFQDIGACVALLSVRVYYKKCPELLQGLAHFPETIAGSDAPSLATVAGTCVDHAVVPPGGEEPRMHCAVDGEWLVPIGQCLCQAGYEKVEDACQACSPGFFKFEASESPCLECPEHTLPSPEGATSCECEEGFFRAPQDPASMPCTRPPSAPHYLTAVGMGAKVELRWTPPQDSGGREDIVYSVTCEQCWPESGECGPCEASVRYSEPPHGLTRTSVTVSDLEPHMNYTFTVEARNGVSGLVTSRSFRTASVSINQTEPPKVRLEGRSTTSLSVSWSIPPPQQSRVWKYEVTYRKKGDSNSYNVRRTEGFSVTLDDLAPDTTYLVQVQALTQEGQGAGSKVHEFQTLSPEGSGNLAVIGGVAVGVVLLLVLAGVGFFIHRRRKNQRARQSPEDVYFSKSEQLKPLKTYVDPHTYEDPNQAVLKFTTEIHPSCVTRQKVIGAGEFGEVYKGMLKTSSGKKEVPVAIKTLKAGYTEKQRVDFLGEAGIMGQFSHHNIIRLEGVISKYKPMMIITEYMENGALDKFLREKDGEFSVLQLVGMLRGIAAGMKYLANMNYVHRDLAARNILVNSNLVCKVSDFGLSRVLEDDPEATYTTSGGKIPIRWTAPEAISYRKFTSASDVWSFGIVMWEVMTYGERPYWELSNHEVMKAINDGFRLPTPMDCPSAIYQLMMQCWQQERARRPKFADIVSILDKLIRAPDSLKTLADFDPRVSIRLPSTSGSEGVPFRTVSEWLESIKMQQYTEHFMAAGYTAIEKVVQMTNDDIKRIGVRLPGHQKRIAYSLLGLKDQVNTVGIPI

Chain of Insulin-like growth factor 1 receptor (Homo sapiens) (P08069 31-736 limits assumed): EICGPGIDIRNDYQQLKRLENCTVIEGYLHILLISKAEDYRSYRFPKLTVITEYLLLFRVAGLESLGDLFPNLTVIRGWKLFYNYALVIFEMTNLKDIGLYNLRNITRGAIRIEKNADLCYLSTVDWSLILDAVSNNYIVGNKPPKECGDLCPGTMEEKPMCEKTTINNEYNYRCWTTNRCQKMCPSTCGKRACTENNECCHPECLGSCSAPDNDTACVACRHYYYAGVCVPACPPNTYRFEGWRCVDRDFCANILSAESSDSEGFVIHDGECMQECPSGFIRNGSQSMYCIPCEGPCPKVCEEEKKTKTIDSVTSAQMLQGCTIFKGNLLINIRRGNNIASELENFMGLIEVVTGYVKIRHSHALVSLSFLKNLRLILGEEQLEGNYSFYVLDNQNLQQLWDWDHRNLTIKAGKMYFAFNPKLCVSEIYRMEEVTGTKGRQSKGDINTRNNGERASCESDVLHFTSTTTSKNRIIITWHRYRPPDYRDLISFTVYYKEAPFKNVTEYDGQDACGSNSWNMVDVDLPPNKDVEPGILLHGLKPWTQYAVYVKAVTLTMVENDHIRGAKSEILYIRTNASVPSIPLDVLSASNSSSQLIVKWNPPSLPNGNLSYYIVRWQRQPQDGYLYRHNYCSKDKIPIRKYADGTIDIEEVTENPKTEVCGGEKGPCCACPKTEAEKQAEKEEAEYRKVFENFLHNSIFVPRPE
Chain of Insulin-like growth factor 1 receptor (Homo sapiens) (P08069 741-1367 limits assumed): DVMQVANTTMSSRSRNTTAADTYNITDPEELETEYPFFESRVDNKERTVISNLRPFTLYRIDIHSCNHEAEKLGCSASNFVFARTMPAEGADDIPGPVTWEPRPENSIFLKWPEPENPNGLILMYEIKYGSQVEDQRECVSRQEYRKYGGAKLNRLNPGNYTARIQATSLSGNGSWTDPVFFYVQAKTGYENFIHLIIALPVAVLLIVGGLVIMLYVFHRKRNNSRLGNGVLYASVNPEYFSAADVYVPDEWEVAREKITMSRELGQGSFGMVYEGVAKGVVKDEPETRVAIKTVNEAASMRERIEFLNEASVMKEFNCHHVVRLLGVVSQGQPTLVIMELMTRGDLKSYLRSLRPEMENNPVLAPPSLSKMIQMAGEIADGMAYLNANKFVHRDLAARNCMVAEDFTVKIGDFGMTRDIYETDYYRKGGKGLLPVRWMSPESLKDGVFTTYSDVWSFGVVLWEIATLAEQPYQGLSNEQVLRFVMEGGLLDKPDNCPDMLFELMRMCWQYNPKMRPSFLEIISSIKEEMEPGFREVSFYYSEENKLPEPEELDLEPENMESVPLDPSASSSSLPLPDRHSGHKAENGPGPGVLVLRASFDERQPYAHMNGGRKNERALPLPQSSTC

residual activity [1] | residual activity [2] | residual activity [3] | residual activity [4] | residual activity [5] | residual activity [6] | residual activity [7] | residual activity [8] | SMILES
36% | 25% | 47% | 56% | 62% | 0% | -1% | 47% | Cc1ccc2cc(-c3n[nH]c4ccc(NC5CCNC5)cc34)[nH]c2c1 (stereo unspecified)
16% | 52% | 92% | 47% | 92% | 2% | 0% | 25% | Cc1ccc2cc(-c3n[nH]c4ccc(NC5CCN(Cc6ccccc6)CC5)cc34)[nH]c2c1
